Experimental data taken from patent US7138361B2, “Herbicidal heterocycles” (E. I. du Pont de Nemours and Company, priority 2000, dated 2006).

Tests used:
Type in all cases: in vivo
[1] = tested on: duck salad (Heteranthera limosa); experiment: Test C flooded paddy test; settings: for Ducksalad plant response rating: Flooded Paddy, scale 0 to 100, 0 no effect, 100 complete control; for Plant response rating, Ducksalad: flooded paddy test, scale 0 to 100 (0 no effect, 100 complete control)
Outline: (§1)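 Rice and three paddy weeds were grown to the 2-leaf stage under flooded conditions, then treated and kept in a greenhouse for 12–14 days. Response was rated visually against untreated controls on a 0–100 scale, where 100 is complete control.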

[2] = tested on: barnyardgrass (Echinochloa crus-galli); experiment: Test C flooded paddy test; settings: for Barnyardgrass plant response rating: Flooded Paddy, scale 0 to 100, 0 no effect, 100 complete control; for Plant response rating, Barnyardgrass: flooded paddy test, scale 0 to 100 (0 no effect, 100 complete control)
Outline: as §1

[3] = tested on: rice (Oryza saliva); experiment: Test C flooded paddy test; settings: for Rice plant response rating: Flooded Paddy, scale 0 to 100, 0 no effect, 100 complete control; for Plant response rating, Rice: flooded paddy test, scale 0 to 100 (0 no effect, 100 complete control)
Outline: as §1

[4] = tested on: smallflower flatsedge (Cyperus difformis); experiment: Test C flooded paddy test; settings: for Flatsedge plant response rating: Flooded Paddy, scale 0 to 100, 0 no effect, 100 complete control; for Plant response rating, Flatsedge: flooded paddy test, scale 0 to 100 (0 no effect, 100 complete control)
Outline: as §1

[5] = tested on: cocklebur (Xanthium strumarium); experiment: Test B preemergence
Excerpt: (§2) Seeds selected from barnyardgrass (Echinochloa crus-galli), Surinam grass (Brachiaria decumbens), cocklebur (Xanthium strumarium), corn (Zea mays), crabgrass (Digitaria sanguinalis), giant foxtail (Setaria faberii), lambsquarters (Chenopodium album), morning glory (Ipomoea hederacea), pigweed (Amaranthus retroflexus), rice (Oryza saliva) and velvetleaf (Abutilon theophrasti) were planted and treated preemergence with test chemicals formulated in a non-phytotoxic solvent mixture which included a surfactant.
(§3) At the same time, plants selected from these crop and weed species and also blackgrass (Alopecurus myosuroides), wheat (Triticum aestivum) and wild oat (Avena fatua) were treated with postemergence applications of test chemicals formulated in the same manner. Plants ranged in height from 2 to 18 cm (1- to 4-leaf stage) for postemergence treatments. Plant species in the flooded paddy test consisted of rice (Oryza saliva), smallflower flatsedge (Cyperus difformis), duck salad (Heteranthera limosa) and barnyardgrass (Echinochloa crus-galli) grown to the 2-leaf stage for testing. Treated plants and controls were maintained in a greenhouse for 13 to 15 days, after which time all species were compared to controls and visually evaluated. Plant response ratings, summarized in Table B, are based on a scale of 0 to 100 where 0 is no effect and 100 is complete control. A dash (-) response means no test result.

[6] = tested on: crabgrass (Digitaria sanguinalis); experiment: Test B preemergence
Excerpt: as §2, §3

[7] = tested on: velvetleaf (Abutilon theophrasti); experiment: Test B preemergence
Excerpt: as §2, §3

[8] = tested on: lambsquarters (Chenopodium album); experiment: Test B preemergence
Excerpt: as §2, §3

[9] = tested on: barnyardgrass (Echinochloa crus-galli); experiment: Test B preemergence
Excerpt: as §2, §3

[10] = tested on: giant foxtail (Setaria faberii); experiment: Test B preemergence
Excerpt: as §2, §3

[11] = tested on: corn (Zea mays); experiment: Test B preemergence
Excerpt: as §2, §3

[12] = tested on: pigweed (Amaranthus retroflexus); experiment: Test B preemergence
Excerpt: as §2, §3

[13] = tested on: Surinam grass (Brachiaria decumbens); experiment: Test B preemergence
Excerpt: as §2, §3

[14] = tested on: morning glory (Ipomoea hederacea); experiment: Test B preemergence
Excerpt: as §2, §3

[15] = tested on: rice (Oryza saliva); experiment: Test B preemergence
Excerpt: as §2, §3

[16] = tested on: cocklebur (Xanthium strumarium); experiment: Test B postemergence; settings: 13 to 15 days
Excerpt: as §2, §3

[17] = tested on: crabgrass (Digitaria sanguinalis); experiment: Test B postemergence; settings: 13 to 15 days
Excerpt: as §2, §3

[18] = tested on: blackgrass (Alopecurus myosuroides); experiment: Test B postemergence; settings: 13 to 15 days
Excerpt: as §2, §3

[19] = tested on: velvetleaf (Abutilon theophrasti); experiment: Test B postemergence; settings: 13 to 15 days
Excerpt: as §2, §3

[20] = tested on: wild oat (Avena fatua); experiment: Test B postemergence; settings: 13 to 15 days
Excerpt: as §2, §3

[21] = tested on: lambsquarters (Chenopodium album); experiment: Test B postemergence; settings: 13 to 15 days
Excerpt: as §2, §3

[22] = tested on: barnyardgrass (Echinochloa crus-galli); experiment: Test B postemergence; settings: 13 to 15 days
Excerpt: as §2, §3

[23] = tested on: giant foxtail (Setaria faberii); experiment: Test B postemergence; settings: 13 to 15 days
Excerpt: as §2, §3

[24] = tested on: corn (Zea mays); experiment: Test B postemergence; settings: 13 to 15 days
Excerpt: as §2, §3

[25] = tested on: pigweed (Amaranthus retroflexus); experiment: Test B postemergence; settings: 13 to 15 days
Excerpt: as §2, §3

[26] = tested on: Surinam grass (Brachiaria decumbens); experiment: Test B postemergence; settings: 13 to 15 days
Excerpt: as §2, §3

[27] = tested on: morning glory (Ipomoea hederacea); experiment: Test B postemergence; settings: 13 to 15 days
Excerpt: as §2, §3

[28] = tested on: wheat (Triticum aestivum); experiment: Test B postemergence; settings: 13 to 15 days
Excerpt: as §2, §3

[29] = Preemergence, Rate 500 g/ha, scale 0 to 100, 0 no effect, 100 complete control
[30] = preemergence, Rate 125 g/ha, scale of 0 to 100 where 0 is no effect and 100 is complete control, 13 to 15 days
[31] = Rate 125 g/ha, scale 0 (no effect) to 100 (complete control)
[32] = Rate 500 g/ha, scale 0 to 100, 0 is no effect, 100 is complete control

Cc1cc(N2CCC(n3ccc(C(C)(C)C)n3)C2=O)cc(Br)c1C (centres unmarked) [Compound 77]
Ducksalad plant response rating ([1]; Rate 250 g/ha): 0
Ducksalad plant response rating ([1]; Rate 500 g/ha): 30
Plant response rating, Ducksalad ([1]; Rate 62 g/ha): 0
Plant response rating, Ducksalad ([1]; Rate 125 g/ha): 0
Barnyardgrass plant response rating ([2]; Rate 250 g/ha): 0
Barnyardgrass plant response rating ([2]; Rate 500 g/ha): 20
Plant response rating, Barnyardgrass ([2]; Rate 62 g/ha): 0
Plant response rating, Barnyardgrass ([2]; Rate 125 g/ha): 0
Rice plant response rating ([3]; Rate 250 g/ha): 0
Rice plant response rating ([3]; Rate 500 g/ha): 30
Plant response rating, Rice ([3]; Rate 62 g/ha): 0
Plant response rating, Rice ([3]; Rate 125 g/ha): 0
Flatsedge plant response rating ([4]; Rate 250 g/ha): 80
Flatsedge plant response rating ([4]; Rate 500 g/ha): 80
Plant response rating, Flatsedge ([4]; Rate 62 g/ha): 70
Plant response rating, Flatsedge ([4]; Rate 125 g/ha): 70
Plant response rating, Cocklebur [5, 29]: 0
Plant response rating, Cocklebur [5, 30]: 0
Plant response rating, Crabgrass [6, 29]: 90
Plant response rating, Crabgrass [6, 30]: 60
Plant response rating, Velvetleaf [7, 29]: 0
Plant response rating, Velvetleaf [7, 30]: 0
Plant response rating, Lambsquarters [8, 29]: 100
Plant response rating, Lambsquarters [8, 30]: 90
Plant response rating, Barnyardgrass [9, 29]: 100
Plant response rating, Barnyardgrass [9, 30]: 20
Plant response rating, Foxtail, Giant [10, 29]: 0
Plant response rating, Foxtail, Giant [10, 30]: 0
Plant response rating, Corn [11, 29]: 0
Plant response rating, Corn [11, 30]: 0
Plant response rating, Pigweed [12, 29]: 100
Plant response rating, Pigweed [12, 30]: 90
Plant response rating, Surinam grass [13, 29]: 40
Plant response rating, Surinam grass [13, 30]: 0
Plant response rating, Morningglory [14, 29]: 0
Plant response rating, Morningglory [14, 30]: 0
Plant response rating, Rice [15, 29]: 0
Plant response rating, Rice [15, 30]: 0
Plant response rating, Cocklebur [16, 31]: 0
Plant response rating, Cocklebur [16, 32]: 20
Plant response rating, Crabgrass [17, 31]: 0
Plant response rating, Crabgrass [17, 32]: 0
Plant response rating, Blackgrass [18, 31]: 0
Plant response rating, Blackgrass [18, 32]: 0
Plant response rating, Velvetleaf [19, 31]: 0
Plant response rating, Velvetleaf [19, 32]: 0
Plant response rating, Wild Oat [20, 31]: 0
Plant response rating, Wild Oat [20, 32]: 0
Plant response rating, Lambsquarters [21, 31]: 0
Plant response rating, Lambsquarters [21, 32]: 20
Plant response rating, Barnyardgrass [22, 31]: 0
Plant response rating, Barnyardgrass [22, 32]: 0
Plant response rating, Foxtail, Giant [23, 31]: 0
Plant response rating, Foxtail, Giant [23, 32]: 0
Plant response rating, Corn [24, 31]: 0
Plant response rating, Corn [24, 32]: 0
Plant response rating, Pigweed [25, 31]: 70
Plant response rating, Pigweed [25, 32]: 80
Plant response rating, Surinam grass [26, 31]: 0
Plant response rating, Surinam grass [26, 32]: 0
Plant response rating, Morningglory [27, 31]: 0
Plant response rating, Morningglory [27, 32]: 0
Plant response rating, Wheat [28, 31]: 0
Plant response rating, Wheat [28, 32]: 0

Cc1c(F)cc(N2CCC(n3ccc(C(C)(C)C)n3)C2=O)cc1Br (centres unmarked) [Compound 78]
Ducksalad plant response rating ([1]; Rate 250 g/ha): 0
Ducksalad plant response rating ([1]; Rate 500 g/ha): 0
Plant response rating, Ducksalad ([1]; Rate 62 g/ha): 0
Plant response rating, Ducksalad ([1]; Rate 125 g/ha): 0
Barnyardgrass plant response rating ([2]; Rate 250 g/ha): 0
Barnyardgrass plant response rating ([2]; Rate 500 g/ha): 60
Plant response rating, Barnyardgrass ([2]; Rate 62 g/ha): 0
Plant response rating, Barnyardgrass ([2]; Rate 125 g/ha): 0
Rice plant response rating ([3]; Rate 250 g/ha): 0
Rice plant response rating ([3]; Rate 500 g/ha): 0
Plant response rating, Rice ([3]; Rate 62 g/ha): 0
Plant response rating, Rice ([3]; Rate 125 g/ha): 0
Flatsedge plant response rating ([4]; Rate 250 g/ha): 0
Flatsedge plant response rating ([4]; Rate 500 g/ha): 90
Plant response rating, Flatsedge ([4]; Rate 62 g/ha): 0
Plant response rating, Flatsedge ([4]; Rate 125 g/ha): 0
Plant response rating, Cocklebur [5, 29]: 0
Plant response rating, Cocklebur [5, 30]: 0
Plant response rating, Crabgrass [6, 29]: 30
Plant response rating, Crabgrass [6, 30]: 0
Plant response rating, Velvetleaf [7, 29]: 0
Plant response rating, Velvetleaf [7, 30]: 0
Plant response rating, Lambsquarters [8, 29]: 100
Plant response rating, Lambsquarters [8, 30]: 100
Plant response rating, Barnyardgrass [9, 29]: 90
Plant response rating, Barnyardgrass [9, 30]: 0
Plant response rating, Foxtail, Giant [10, 29]: 10
Plant response rating, Foxtail, Giant [10, 30]: 0
Plant response rating, Corn [11, 29]: 0
Plant response rating, Corn [11, 30]: 0
Plant response rating, Pigweed [12, 29]: 100
Plant response rating, Pigweed [12, 30]: 80
Plant response rating, Surinam grass [13, 29]: 0
Plant response rating, Surinam grass [13, 30]: 0
Plant response rating, Morningglory [14, 29]: 0
Plant response rating, Morningglory [14, 30]: 0
Plant response rating, Rice [15, 29]: 0
Plant response rating, Rice [15, 30]: 0
Plant response rating, Cocklebur [16, 31]: 0
Plant response rating, Cocklebur [16, 32]: 20
Plant response rating, Crabgrass [17, 31]: 0
Plant response rating, Crabgrass [17, 32]: 0
Plant response rating, Blackgrass [18, 31]: 0
Plant response rating, Blackgrass [18, 32]: 0
Plant response rating, Velvetleaf [19, 31]: 0
Plant response rating, Velvetleaf [19, 32]: 0
Plant response rating, Wild Oat [20, 31]: 0
Plant response rating, Wild Oat [20, 32]: 0
Plant response rating, Lambsquarters [21, 31]: 0
Plant response rating, Lambsquarters [21, 32]: 10
Plant response rating, Barnyardgrass [22, 31]: 0
Plant response rating, Barnyardgrass [22, 32]: 0
Plant response rating, Foxtail, Giant [23, 31]: 0
Plant response rating, Foxtail, Giant [23, 32]: 0
Plant response rating, Corn [24, 31]: 0
Plant response rating, Corn [24, 32]: 0
Plant response rating, Pigweed [25, 31]: 70
Plant response rating, Pigweed [25, 32]: 80
Plant response rating, Surinam grass [26, 31]: 0
Plant response rating, Surinam grass [26, 32]: 0
Plant response rating, Morningglory [27, 31]: 0
Plant response rating, Morningglory [27, 32]: 0
Plant response rating, Wheat [28, 31]: 0
Plant response rating, Wheat [28, 32]: 0
